The source of these data is patent US9708314B2, “Heterocyclic amide compound” (NISSAN CHEMICAL INDUSTRIES, LTD., priority 2013, dated 2017).

What all share (assay type): in vivo
One assay has as its system Stellaria media. The experiment in a line: Test Example 4: herbicidal effect by application to foliage (diluvial soil, plastic box). The following applies: for P: herbicidal effect on Stellaria media: application to foliage, application herbicide amount 320 g/ha; for P (Stellaria media) herbicidal effect grade: Application herbicide amount 320 g/ha, foliage application. In short, it runs like this:
(§1)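 Greenhouse plants (25° C. to 30° C., 14 d, diluvial soil) receive a foliar spray of water-diluted emulsifiable formulation at defined g/ha. Grading after 3 weeks uses a six-step herbicidal-ratio scale, with 4 covering 70% to <90% and 1 covering 5% to <20%.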

The subject of a further assay is Setaria viridis. The description is as above. To be noted: for G: herbicidal effect on Setaria viridis: application to foliage, application herbicide amount 320 g/ha; for G (Setaria viridis) herbicidal effect grade: Application herbicide amount 320 g/ha, foliage application. In a few lines:
as §1

For a further assay, the system named is Alopecurus myosuroides. Described as above. The following applies: for J: herbicidal effect on Alopecurus myosuroides: application to foliage, application herbicide amount 320 g/ha; for J (Alopecurus myosuroides) herbicidal effect grade: Application herbicide amount 320 g/ha, foliage application. In a few lines: as §1
In the next assay the test system is Digitaria ciliaris. The assay is described as above. The following applies: for F: herbicidal effect on Digitaria ciliaris: application to foliage, application herbicide amount 320 g/ha; for F (Digitaria ciliaris) herbicidal effect grade: Application herbicide amount 320 g/ha, foliage application. In short, it runs like this:
as §1

In the next assay the test system is Amaranthus retroflexus. The description is as above. The following applies: for N: herbicidal effect on Amaranthus retroflexus: application to foliage, application herbicide amount 320 g/ha; for N (Amaranthus retroflexus) herbicidal effect grade: Application herbicide amount 320 g/ha, foliage application. In a few lines:
as §1

For the next assay, the system named is Apera spica-venti. Described as above. The following applies: for L: herbicidal effect on Apera spica-venti.: application to foliage, application herbicide amount 320 g/ha; for L (Apera spica-venti.) herbicidal effect grade: Application herbicide amount 320 g/ha, foliage application. In a few lines: as §1
Another assay deals with Chenopodium album. The description is as above. The following applies: for O: herbicidal effect on Chenopodium album: application to foliage, application herbicide amount 320 g/ha; for O (Chenopodium album) herbicidal effect grade: Application herbicide amount 320 g/ha, foliage application. In short, it runs like this: as §1
For a further assay, the system named is Abutilon theophrasti. The assay is described as above. The following applies: for M: herbicidal effect on Abutilon theophrasti: application to foliage, application herbicide amount 320 g/ha; for M (Abutilon theophrasti) herbicidal effect grade: Application herbicide amount 320 g/ha, foliage application. In a few lines:
as §1

Another assay concerns Veronica persica. Described as above. The following applies: for R: herbicidal effect on Veronica persica: application to foliage, application herbicide amount 320 g/ha; for R (Veronica persica) herbicidal effect grade: Application herbicide amount 320 g/ha, foliage application. In short, it runs like this:
as §1

The test system of a further assay is Leptochloa chinensis. Nature of the assay: Test Example 3: herbicidal effect by application to foliage (Wagner pot, water depth 0.1-0.5 cm). To be noted: Nineteenth Table; application to foliage; application herbicide amount 320 g/ha. In short, it runs like this: (§2)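 A small sprayer delivered the diluted emulsion uniformly to foliage at the chosen rate in g/ha, 14 days after sowing in Wagner pots held at 25–30 °C. Outcome: 0–5 herbicidal-ratio score read three weeks post-treatment.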

Assay [1] concerns Echinochloa crus-galli var. crus-galli. The description is as above. The following applies: Nineteenth Table; application to foliage; application herbicide amount 320 g/ha. In a few lines: as §2
The test system of another assay is Cyperus difformis. Described as above. To be noted: Nineteenth Table; application to foliage; application herbicide amount 320 g/ha. In a few lines:
as §2

Take `Cn1nnnc1NC(=O)c1ccc(C(F)(F)F)n2c(COc3ccccc3)nnc12` [2-020]: the “P: herbicidal effect on Stellaria media” value in the assay with Stellaria media was 4 (Herbicidal ratio of 70% or more and less than 90%). The “G: herbicidal effect on Setaria viridis” value in the assay on Setaria viridis is 3 (Herbicidal ratio of 40% or more and less than 70%). Moreover, in the assay with Alopecurus myosuroides, the “J: herbicidal effect on Alopecurus myosuroides” value (“J: herbicidal effect” below) is listed as 0 (Herbicidal ratio of 5% or less (almost no effect)). Besides, in the assay on Digitaria ciliaris, the “F: herbicidal effect on Digitaria ciliaris” value (“F: herbicidal effect” below) was 3 (Herbicidal ratio of 40% or more and less than 70%). The “N: herbicidal effect on Amaranthus retroflexus” value (“N: herbicidal effect” below) in the assay on Amaranthus retroflexus was 4 (Herbicidal ratio of 70% or more and less than 90%). In addition, the “L: herbicidal effect on Apera spica-venti.” value (“L: herbicidal effect” below) with Apera spica-venti. is 1 (Herbicidal ratio of 5% or more and less than 20%). In the assay on Chenopodium album, the “O: herbicidal effect on Chenopodium album” value (“O: herbicidal effect” below) is on record as 5 (Herbicidal ratio of 90% or more (almost completely withered)). In addition, in the assay on Abutilon theophrasti, the “M: herbicidal effect on Abutilon theophrasti” value (from here on “M: herbicidal effect”) is 5 (Herbicidal ratio of 90% or more (almost completely withered)). The “R: herbicidal effect on Veronica persica” value with Veronica persica was 4 (Herbicidal ratio of 70% or more and less than 90%). In addition, the “D (herbicidal effect grade)” value in the assay on Leptochloa chinensis was 4 (Herbicidal ratio of 70% or more and less than 90%). The “H (herbicidal effect grade)” value in [1] was 4 (Herbicidal ratio of 70% or more and less than 90%). For the same molecule, in the assay on Cyperus difformis, the “E (herbicidal effect grade)” value was 4 (Herbicidal ratio of 70% or more and less than 90%).
Consider `Cn1nnnc1NC(=O)c1ccc(C(F)(F)F)n2c(C3CCCC3)nnc12` [2-021], for which the “P: herbicidal effect on Stellaria media” value in the assay on Stellaria media is given as 5 (Herbicidal ratio of 90% or more (almost completely withered)). For the same molecule, the “G: herbicidal effect on Setaria viridis” value in the assay on Setaria viridis is recorded as 5 (Herbicidal ratio of 90% or more (almost completely withered)). In addition, in the assay on Alopecurus myosuroides, the “J: herbicidal effect” value is 3 (Herbicidal ratio of 40% or more and less than 70%). In addition, the “F: herbicidal effect” value with Digitaria ciliaris is 5 (Herbicidal ratio of 90% or more (almost completely withered)). The “N: herbicidal effect” value in the assay on Amaranthus retroflexus is reported as 5 (Herbicidal ratio of 90% or more (almost completely withered)). The “L: herbicidal effect” value with Apera spica-venti. was 4 (Herbicidal ratio of 70% or more and less than 90%). Besides, the “O: herbicidal effect” value in the assay with Chenopodium album is on record as 5 (Herbicidal ratio of 90% or more (almost completely withered)). Moreover, in the assay with Abutilon theophrasti, the “M: herbicidal effect” value was 5 (Herbicidal ratio of 90% or more (almost completely withered)). The “R: herbicidal effect on Veronica persica” value with Veronica persica is given as 5 (Herbicidal ratio of 90% or more (almost completely withered)). For the same molecule, in the assay with Leptochloa chinensis, the “D (herbicidal effect grade)” value is on record as 5 (Herbicidal ratio of 90% or more (almost completely withered)). For the same molecule, the “H (herbicidal effect grade)” value in assay [1] was 5 (Herbicidal ratio of 90% or more (almost completely withered)). Further, the “E (herbicidal effect grade)” value in the assay with Cyperus difformis is reported as 5 (Herbicidal ratio of 90% or more (almost completely withered)).
Regarding `Cn1nnnc1NC(=O)c1ccc(C(F)(F)F)n2c(C3CCOC3)nnc12` (stereo not drawn) [2-022], the “P: herbicidal effect on Stellaria media” value with Stellaria media is given as 5 (Herbicidal ratio of 90% or more (almost completely withered)). Besides, in the assay with Setaria viridis, the “G: herbicidal effect on Setaria viridis” value is reported as 5 (Herbicidal ratio of 90% or more (almost completely withered)). For the same molecule, the “J: herbicidal effect” value with Alopecurus myosuroides was 3 (Herbicidal ratio of 40% or more and less than 70%). For the same molecule, the “F: herbicidal effect” value in the assay on Digitaria ciliaris is 4 (Herbicidal ratio of 70% or more and less than 90%). In addition, in the assay on Amaranthus retroflexus, the “N: herbicidal effect” value is reported as 5 (Herbicidal ratio of 90% or more (almost completely withered)). In addition, the “L: herbicidal effect” value in the assay on Apera spica-venti. is reported as 5 (Herbicidal ratio of 90% or more (almost completely withered)). Also, the “O: herbicidal effect” value with Chenopodium album is listed as 5 (Herbicidal ratio of 90% or more (almost completely withered)). Also, the “M: herbicidal effect” value in the assay with Abutilon theophrasti was 5 (Herbicidal ratio of 90% or more (almost completely withered)). The “R: herbicidal effect on Veronica persica” value in the assay with Veronica persica is 5 (Herbicidal ratio of 90% or more (almost completely withered)). Besides, the “D (herbicidal effect grade)” value in the assay on Leptochloa chinensis was 5 (Herbicidal ratio of 90% or more (almost completely withered)). The “H (herbicidal effect grade)” value in assay [1] is on record as 5 (Herbicidal ratio of 90% or more (almost completely withered)). In the assay with Cyperus difformis, the “E (herbicidal effect grade)” value was 5 (Herbicidal ratio of 90% or more (almost completely withered)).
On to `COCCN(C)c1nnc2c(C(=O)Nc3nnco3)ccc(C(F)(F)F)n12` [1-121], for which the “P (Stellaria media) herbicidal effect grade” value in the assay with Stellaria media is on record as 5 (Herbicidal ratio of 90% or more (almost completely withered)). The “G (Setaria viridis) herbicidal effect grade” value in the assay with Setaria viridis is 4 (Herbicidal ratio of 70% or more and less than 90%). For the same molecule, the “J (Alopecurus myosuroides) herbicidal effect grade” value in the assay on Alopecurus myosuroides was 3 (Herbicidal ratio of 40% or more and less than 70%). The “F (Digitaria ciliaris) herbicidal effect grade” value in the assay with Digitaria ciliaris was 5 (Herbicidal ratio of 90% or more (almost completely withered)). Further, in the assay with Amaranthus retroflexus, the “N (Amaranthus retroflexus) herbicidal effect grade” value is given as 5 (Herbicidal ratio of 90% or more (almost completely withered)). The “L (Apera spica-venti.) herbicidal effect grade” value in the assay on Apera spica-venti. was 3 (Herbicidal ratio of 40% or more and less than 70%). Besides, the “O (Chenopodium album) herbicidal effect grade” value in the assay with Chenopodium album was 5 (Herbicidal ratio of 90% or more (almost completely withered)). The “M (Abutilon theophrasti) herbicidal effect grade” value in the assay with Abutilon theophrasti was 4 (Herbicidal ratio of 70% or more and less than 90%). The “R (Veronica persica) herbicidal effect grade” value with Veronica persica is on record as 5 (Herbicidal ratio of 90% or more (almost completely withered)). In the assay on Leptochloa chinensis, the “D (herbicidal effect grade)” value is recorded as 5 (Herbicidal ratio of 90% or more (almost completely withered)). The “H (herbicidal effect grade)” value in assay [1] is 5 (Herbicidal ratio of 90% or more (almost completely withered)). The “E (herbicidal effect grade)” value in the assay on Cyperus difformis is 5 (Herbicidal ratio of 90% or more (almost completely withered)).
Turning to `CCSc1nnc2c(C(=O)Nc3nnco3)ccc(C(F)(F)F)n12` [1-106], the “P (Stellaria media) herbicidal effect grade” value in the assay on Stellaria media is given as 5 (Herbicidal ratio of 90% or more (almost completely withered)). Further, the “G (Setaria viridis) herbicidal effect grade” value in the assay with Setaria viridis was 5 (Herbicidal ratio of 90% or more (almost completely withered)). Moreover, in the assay with Alopecurus myosuroides, the “J (Alopecurus myosuroides) herbicidal effect grade” value is 1 (Herbicidal ratio of 5% or more and less than 20%). In addition, the “F (Digitaria ciliaris) herbicidal effect grade” value in the assay with Digitaria ciliaris is reported as 5 (Herbicidal ratio of 90% or more (almost completely withered)). In the assay with Amaranthus retroflexus, the “N (Amaranthus retroflexus) herbicidal effect grade” value was 5 (Herbicidal ratio of 90% or more (almost completely withered)). The “L (Apera spica-venti.) herbicidal effect grade” value with Apera spica-venti. was 3 (Herbicidal ratio of 40% or more and less than 70%). Besides, the “O (Chenopodium album) herbicidal effect grade” value with Chenopodium album is recorded as 5 (Herbicidal ratio of 90% or more (almost completely withered)). Also, the “M (Abutilon theophrasti) herbicidal effect grade” value in the assay with Abutilon theophrasti is 4 (Herbicidal ratio of 70% or more and less than 90%). The “R (Veronica persica) herbicidal effect grade” value in the assay on Veronica persica is recorded as 5 (Herbicidal ratio of 90% or more (almost completely withered)). Also, the “D (herbicidal effect grade)” value in the assay with Leptochloa chinensis is 5 (Herbicidal ratio of 90% or more (almost completely withered)). In addition, the “H (herbicidal effect grade)” value in assay [1] is listed as 5 (Herbicidal ratio of 90% or more (almost completely withered)). In addition, the “E (herbicidal effect grade)” value with Cyperus difformis is recorded as 5 (Herbicidal ratio of 90% or more (almost completely withered)).
